In the assay the target is T1, NPC1 (Cricetulus griseus, UniProt Q9JLG3).
T1 construct: CHO-7 cells in the medium are deprived of cholesterol to induce the LDL receptors biosynthesis; endogenous in cells; host or cells: CHO-7 cells
T1 sequence (Q9JLG3 23-1277): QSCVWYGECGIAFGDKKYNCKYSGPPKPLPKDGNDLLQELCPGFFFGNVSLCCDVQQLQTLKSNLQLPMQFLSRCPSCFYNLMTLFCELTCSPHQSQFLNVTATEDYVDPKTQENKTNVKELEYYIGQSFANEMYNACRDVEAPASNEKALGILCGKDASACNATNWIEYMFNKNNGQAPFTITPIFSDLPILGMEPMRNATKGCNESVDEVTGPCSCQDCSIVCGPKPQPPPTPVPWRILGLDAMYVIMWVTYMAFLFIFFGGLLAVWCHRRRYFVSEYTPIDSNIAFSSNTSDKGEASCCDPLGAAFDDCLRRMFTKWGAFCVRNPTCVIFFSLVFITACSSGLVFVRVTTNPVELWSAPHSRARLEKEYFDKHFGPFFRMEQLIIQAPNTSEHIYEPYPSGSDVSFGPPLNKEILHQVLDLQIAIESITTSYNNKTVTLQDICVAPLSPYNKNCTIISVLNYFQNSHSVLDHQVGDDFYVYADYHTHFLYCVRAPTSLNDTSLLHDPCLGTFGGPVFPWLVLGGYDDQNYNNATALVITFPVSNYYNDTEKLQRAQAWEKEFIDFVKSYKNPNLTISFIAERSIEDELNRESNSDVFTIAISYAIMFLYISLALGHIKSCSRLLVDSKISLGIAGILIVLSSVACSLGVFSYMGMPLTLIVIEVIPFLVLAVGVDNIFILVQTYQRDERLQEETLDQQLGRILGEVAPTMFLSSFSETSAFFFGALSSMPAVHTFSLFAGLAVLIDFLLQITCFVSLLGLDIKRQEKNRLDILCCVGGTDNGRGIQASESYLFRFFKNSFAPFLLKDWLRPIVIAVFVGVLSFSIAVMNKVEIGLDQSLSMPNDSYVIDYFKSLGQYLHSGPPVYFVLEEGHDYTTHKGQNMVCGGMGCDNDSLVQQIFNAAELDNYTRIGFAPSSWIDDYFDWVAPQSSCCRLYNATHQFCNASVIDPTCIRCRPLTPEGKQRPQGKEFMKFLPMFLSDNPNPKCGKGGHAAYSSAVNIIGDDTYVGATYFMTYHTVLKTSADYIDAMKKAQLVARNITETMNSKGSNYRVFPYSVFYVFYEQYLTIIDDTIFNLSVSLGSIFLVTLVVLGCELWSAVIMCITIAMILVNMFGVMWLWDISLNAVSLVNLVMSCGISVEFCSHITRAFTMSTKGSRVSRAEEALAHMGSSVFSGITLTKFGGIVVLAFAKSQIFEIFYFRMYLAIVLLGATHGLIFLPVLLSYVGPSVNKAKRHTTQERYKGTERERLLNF
The assay is described as follows: Cholesterol re-esterification (ACAT) assay measuring NPC1-mediated export of cholesterol from lysosomes in CHO-7 cells. The format is cell-based. To be noted: for cholesteryl [14C] oleate formed, Repeat 1 / cholesteryl [14C] oleate formed, Repeat 2: Fig. 2 source data; for cholesteryl [14C] oleate formed, Repeat 3 / cholesteryl [14C] oleate formed, Repeat 4: Supplementary Fig. 3 source data; for IC50: IC50 (concentration at which each compound inhibited cholesterol esterification by 50%), 10% FCS, 4 h then 2 h [14C] oleate pulse. The text has this:
Itraconazole has three chiral centers (Supplementary Fig. 2a). The pharmaceutical form contains four cis-stereoisomers in a 1:1:1:1 molar ratio (Supplementary Fig. 2a–d). To determine the activity of the cis-stereoisomers, the individual isomers were isolated and identified based on their optical rotation in chloroform following a previous report (Supplementary Fig. 2e)[26]. Then, they were separately tested in a cholesterol re-esterification assay used to measure NPC1-mediated export of cholesterol from lysosomes. Briefly, CHO-7 cells in the medium are deprived of cholesterol to induce the LDL receptors biosynthesis. The cells are then incubated with fetal calf serum (FCS) that contains LDL. The LDL-derived cholesterol will now be transported by functional NPC1 protein from the lysosome to the endoplasmic reticulum (ER). The acyl-CoA:cholesterol actyltransferase named ACAT can now re-esterify the cholesterol in the ER. Therefore, the cells were pulse-labeled with [^14C] oleate and we can measure the synthesis of cholesteroyl [^14C] oleate to evaluate the activity of NPC1 protein. Using this assay, we tested the ability of various itraconazole to inhibit NPC1 activity.
Fig. 2 ACAT activity of itraconazole and ketoconazole in CHO-7 cells. On day 0, CHO-7 cells were set up in medium A with 5% LPDS at 2.5 × 10^5 cells/well in 6-well dish. On day 2, cells were switched to medium A with 5% LPDS containing 50 µM sodium compactin and 50 µM sodium mevalonate. On day 3 the cells received fresh medium B containing compactin and mevalonate with various concentration compounds in the presence of 10% FCS containing lipoproteins. After incubation for 4 h at 37 °C, each cell monolayer was pulse-labeled for 2 h with 0.1 mM sodium [^14C] oleate (5792 dpm/nmol). The cells were then harvested for measurement of their content of cholesteryl [^14C] oleate and [^14C] triglycerides, as described in Methods. […] Itraconazole mixture, isomer A (Supplementary Fig. 2a), isomer B (Supplementary Fig. 2b) and isomer C (Supplementary Fig. 2c) were added at final concentrations of 0.3 μM. The isomer D (Supplementary Fig. 2d), I-Br and ketoconazole were added at final concentrations of 1 μM. The biological repeats are shown as individual values. Source data are provided as a Source Data file.
On day 0, cells were set up in medium A with 5% LPDS at 2.5 × 10^5 cells/well in six-well dish. On day 2, cells were switched to medium A with 5% LPDS containing 50 µM sodium compactin and 50 µM sodium mevalonate. On day 3 the cells received fresh medium B containing compactin and mevalonate with indicated concentration triazole compounds in the presence of 10% FCS containing lipoproteins. After incubation for 4 h at 37 °C, each cell monolayer was pulse-labeled for 2 h with 0.1 mM sodium [^14C] oleate (5792 dpm/nmol). The cells were then harvested for measurement of their content of cholesteryl [^14C] oleate and [^14C] triglycerides.
The rate of incorporation of [^14C] oleate into cholesteryl [^14C] oleate and [^14C] triglycerides by monolayers of NPC1^−/− cells and CHO-7 cells was measured as described previously. In brief, cells were switched to medium containing LPDS supplemented with compactin and mevolonate at 16 h before the experiments. On the day of the experiment, cells were incubated for 4 h with fresh medium containing FCS as a source of cholesterol-containing lipoproteins. Cells were then pulse –labeled for 2 h with 0.1 mM sodium [^14C] oleate. Cells were then washed, and the lipids were extracted in hexane:isopropanol (3:2, vol:vol), separated on a silica gel G thin-layer chromatogram (developed in heptane:ethylether:acetic acid, 90:30:1), and quantified by scintillation counting with the use of an internal standard for recovery.

Where “and” joins values, the source holds several entries; their conditions need not be identical. Identical values can stand only once.

On to `CCC(C)n1ncn(-c2ccc(N3CCN(c4ccc(OCC5COC(Cn6cncn6)(c6ccc(Cl)cc6Cl)O5)cc4)CC3)cc2)c1=O` (stereo not shown) [Itraconazole mixture, itraconazole], for which the IC50 was ~50 nM and 50 nM. Further, where the note is “0.01 uM compound”, the “cholesteryl [14C] oleate formed, Repeat 1” value (“cholesteryl … Repeat 1” for short) was 4.018 nanomoles formed per hour per milligram cell protein; the “cholesteryl [14C] oleate formed, Repeat 2” value (“cholesteryl … Repeat 2” for short) is listed as 4.2448 nanomoles formed per hour per milligram cell protein; the “cholesteryl [14C] oleate formed, Repeat 3” value (“cholesteryl … Repeat 3” for short) is 4.59 nanomoles formed per hour per milligram cell protein; the “cholesteryl [14C] oleate formed, Repeat 4” value (“cholesteryl … Repeat 4” for short) was 4.561 nanomoles formed per hour per milligram cell protein. Under “0.03 uM compound”, the “cholesteryl … Repeat 1” value is 5.241 nanomoles formed per hour per milligram cell protein; the “cholesteryl … Repeat 2” value is listed as 3.3234 nanomoles formed per hour per milligram cell protein; the “cholesteryl … Repeat 3” value is given as 3.807 nanomoles formed per hour per milligram cell protein; the “cholesteryl … Repeat 4” value is recorded as 5.72 nanomoles formed per hour per milligram cell protein. Moreover, where the note is “0.06 uM compound”, the “cholesteryl … Repeat 1” value is given as 1.349 nanomoles formed per hour per milligram cell protein; the “cholesteryl … Repeat 2” value was 2.23 nanomoles formed per hour per milligram cell protein; the “cholesteryl … Repeat 3” value is recorded as 3.728 nanomoles formed per hour per milligram cell protein; the “cholesteryl … Repeat 4” value is reported as 1.926 nanomoles formed per hour per milligram cell protein. Also, for the setting “0.1 uM compound”, the “cholesteryl … Repeat 1” value is 1.053 nanomoles formed per hour per milligram cell protein; the “cholesteryl … Repeat 2” value was 0.9435 nanomoles formed per hour per milligram cell protein; the “cholesteryl … Repeat 3” value was 1.321 nanomoles formed per hour per milligram cell protein; the “cholesteryl … Repeat 4” value was 1.133 nanomoles formed per hour per milligram cell protein. For the same compound, for the setting “0.3 uM compound”, the “cholesteryl … Repeat 1” value is 0.3641 nanomoles formed per hour per milligram cell protein; the “cholesteryl … Repeat 2” value is reported as 0.3378 nanomoles formed per hour per milligram cell protein; the “cholesteryl … Repeat 3” value is reported as 0.05082 nanomoles formed per hour per milligram cell protein; the “cholesteryl … Repeat 4” value is given as 0.1455 nanomoles formed per hour per milligram cell protein.

Take `CCC(C)n1ncn(-c2ccc(N3CCN(c4ccc(OCC5COC(Cn6cncn6)(c6ccc(Cl)cc6Cl)O5)cc4)CC3)c(Br)c2)c1=O` (stereo not shown) [I-Br]: the IC50 is 200 nM and ~200 nM. Further, under “0.01 uM compound”, the “cholesteryl … Repeat 1” value is reported as 4.59 nanomoles formed per hour per milligram cell protein; the “cholesteryl … Repeat 2” value is given as 4.968 nanomoles formed per hour per milligram cell protein; the “cholesteryl … Repeat 3” value is reported as 4.668 nanomoles formed per hour per milligram cell protein; the “cholesteryl … Repeat 4” value is 4.998 nanomoles formed per hour per milligram cell protein. In addition, where the note is “0.03 uM compound”, the “cholesteryl … Repeat 1” value is 5.377 nanomoles formed per hour per milligram cell protein; the “cholesteryl … Repeat 2” value is on record as 4.886 nanomoles formed per hour per milligram cell protein; the “cholesteryl … Repeat 3” value was 4.708 nanomoles formed per hour per milligram cell protein; the “cholesteryl … Repeat 4” value is reported as 4.077 nanomoles formed per hour per milligram cell protein. Besides, under “0.06 uM compound”, the “cholesteryl … Repeat 1” value was 4.324 nanomoles formed per hour per milligram cell protein; the “cholesteryl … Repeat 2” value was 4.164 nanomoles formed per hour per milligram cell protein; the “cholesteryl … Repeat 3” value is recorded as 4.605 nanomoles formed per hour per milligram cell protein; the “cholesteryl … Repeat 4” value is recorded as 3.966 nanomoles formed per hour per milligram cell protein. For the setting “0.1 uM compound”, the “cholesteryl … Repeat 1” value is recorded as 3.9836 nanomoles formed per hour per milligram cell protein; the “cholesteryl … Repeat 2” value was 4.202 nanomoles formed per hour per milligram cell protein; the “cholesteryl … Repeat 3” value is reported as 4.772 nanomoles formed per hour per milligram cell protein; the “cholesteryl … Repeat 4” value is 3.292 nanomoles formed per hour per milligram cell protein. For the same compound, under “0.3 uM compound”, the “cholesteryl … Repeat 1” value was 1.539 nanomoles formed per hour per milligram cell protein; the “cholesteryl … Repeat 2” value is 1.1254 nanomoles formed per hour per milligram cell protein; the “cholesteryl … Repeat 3” value is recorded as 1.245 nanomoles formed per hour per milligram cell protein; the “cholesteryl … Repeat 4” value is 1.037 nanomoles formed per hour per milligram cell protein. Also, for the setting “1 uM compound”, the “cholesteryl … Repeat 1” value was 0.2467 nanomoles formed per hour per milligram cell protein; the “cholesteryl … Repeat 2” value is reported as 0.5544 nanomoles formed per hour per milligram cell protein; the “cholesteryl … Repeat 3” value is recorded as 0.5005 nanomoles formed per hour per milligram cell protein; the “cholesteryl … Repeat 4” value is given as 0.5131 nanomoles formed per hour per milligram cell protein.

Values taken from article PMC6952396, “Structural basis for itraconazole-mediated NPC1 inhibition” (Nature Communications, 2020).
